Assay results published in patent publication US8410056B2, “Pro-oxidant anti-cancer compounds” (priority 2006, dated 2013).
Structures can show the parent of a compound that is named as a salt.

Key:
[1] = tested on: Jurkat, HBT11, MCF7, MCF7-C3; conditions: Birringer et al, cited from earlier work; for pro-apoptotic activity: compared with α-TOS and isomers; for IC50: Jurkat, HBT11, MCF7, MCF7-C3, 2003
[2] = biological target: T1, complex II/SDH-dependent activity in NeuTL cells (Mus musculus, UniProt Q8K2B3+Q9CQA3+Q9CXV1+Q9CZB0); assay: MTT reduction assay of complex II/SDH activity in whole cells; type: cell-based, murine; conditions: absence of added succinate; 4 h
T1 construct: For specifically measuring complex II activity in whole cells; endogenous in cells; host or cells: NeuTL murine breast cancer cells
T1 sequence (Q8K2B3 43-664): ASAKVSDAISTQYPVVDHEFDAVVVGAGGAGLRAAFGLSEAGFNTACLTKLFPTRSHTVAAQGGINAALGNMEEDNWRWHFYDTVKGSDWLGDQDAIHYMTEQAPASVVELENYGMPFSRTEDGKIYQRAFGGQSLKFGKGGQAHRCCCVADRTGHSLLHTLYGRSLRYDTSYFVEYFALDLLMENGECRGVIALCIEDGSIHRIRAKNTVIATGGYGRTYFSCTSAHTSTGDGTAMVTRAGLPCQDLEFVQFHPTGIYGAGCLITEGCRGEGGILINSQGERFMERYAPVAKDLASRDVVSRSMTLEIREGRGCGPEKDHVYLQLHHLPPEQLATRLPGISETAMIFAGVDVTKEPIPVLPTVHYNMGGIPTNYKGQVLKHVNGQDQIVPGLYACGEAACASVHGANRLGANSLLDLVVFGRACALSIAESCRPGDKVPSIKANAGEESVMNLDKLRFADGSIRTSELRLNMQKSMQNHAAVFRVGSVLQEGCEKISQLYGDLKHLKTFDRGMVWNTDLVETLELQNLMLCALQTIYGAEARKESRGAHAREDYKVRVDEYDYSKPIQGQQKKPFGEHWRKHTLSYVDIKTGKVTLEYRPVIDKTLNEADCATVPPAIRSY
T1 sequence (Q9CQA3 31-282): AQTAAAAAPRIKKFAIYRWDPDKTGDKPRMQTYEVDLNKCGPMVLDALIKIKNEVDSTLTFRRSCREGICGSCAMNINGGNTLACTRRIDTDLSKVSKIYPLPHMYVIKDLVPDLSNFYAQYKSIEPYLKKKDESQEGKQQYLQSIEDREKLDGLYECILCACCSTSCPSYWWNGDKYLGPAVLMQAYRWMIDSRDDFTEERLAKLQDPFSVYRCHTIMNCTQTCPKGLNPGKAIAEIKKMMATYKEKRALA
T1 sequence (Q9CZB0 30-169): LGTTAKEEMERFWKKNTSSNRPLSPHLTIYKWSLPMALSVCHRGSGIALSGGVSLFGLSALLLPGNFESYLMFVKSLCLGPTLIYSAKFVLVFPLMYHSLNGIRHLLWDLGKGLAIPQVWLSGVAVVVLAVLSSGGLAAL
T1 sequence (Q9CXV1 57-159): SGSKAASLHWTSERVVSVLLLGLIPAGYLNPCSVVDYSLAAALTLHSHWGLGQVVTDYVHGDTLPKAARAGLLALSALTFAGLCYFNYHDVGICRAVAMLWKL
Experimental: MTT assay. MTT solutions were prepared immediately before use by dissolving 2.5 mg/ml 3-(4,5-dimethyl[…] (MTT) (Sigma) in PBS alone or phenol red-free RPMI medium containing 20 mM succinic acid, pH 7.4. Stock solutions of 3-nitropropionic acid (3NPA) in ethanol, thenoyltrifluoroacetone (TTFA) in DMSO, 3-BP in PBS, α-TOS in DMSO, and MitoQ (Alleva et al, 2003, James et al, 2005) in ethanol were prepared. The drugs were tested on NeuTL cells cultured in exponential growth phase in 96-well microtitre plates using 4-8 replicate wells per dilution assayed. To assess the ability of MitoQ to restore MTT reduction, cells were pre-incubated for 60 min with 2 or 5 μM MitoQ. Final concentrations of ethanol or DMSO in cultures were ≦0.1%. Treated and control cells were allowed to reduce MTT to blue formazan crystals for 2 or 4 h at 37° C. and 5% CO2. After incubation, culture supernatants were removed except for 30 μl, before the formazan crystals were solubilized by addition of 150 μl DMSO, and absorbance values were measured at 570 nm using a Fluorostar Optima plate reader.
To this end, the present inventors investigated whether α-TOS interferes with UbQ binding in complex II. For specifically measuring complex II activity in whole cells, a short-term (1-2 h) assay was used based on the reduction of the tetrazolium salt, MTT (Maehara et al, 1988). […] For this, oxidative respiration of murine NeuTL breast cancer cells was sustained on high levels of succinate (20 mM), thereby promoting the SDH activity of complex II (Maehara et al, 1988). The cells were then assayed within 1-2 h for their ability to enzymatically reduce MTT, which under conditions of high succinate becomes a specific indicator of complex II/SDH-dependent activity (Maehara et al, 1988, Berridge and Tan, 1993).

Jurkat, U937, Meso-2 = conditions: Tomic-Vatic et al, 2005, cited from earlier work; for IC50: Jurkat, U937, Meso-2; for pro-apoptotic activity: ester bond replaced by amide bond
MCF7 = conditions: cited from earlier work
B16(F10) = conditions: He et al, 1997, cited from earlier work; for IC50: B16(F10)
mesothelioma = assay: Clinical study, patient with mesothelioma; type: in vivo; conditions: same patient
Experimental: α-TOS was used to treat mesothelioma in a human cancer patient. […] The blood plasma levels were monitored and levels of α-TOS in the plasma attained 50 μM over prolonged periods during continual application. This is more than sufficient to kill the cancer cells based on in vitro analysis.
The patient was originally receiving high dose opiate medications, neuropathic pain medications, home oxygen, and was predicted to have a life expectancy of 6-8 weeks. After treatment with α-TOS, the patient no longer required analgesia or oxygen.
In December 2005, the patient started receiving transdermal delivery of α-TOS, prepared in a base cream and solubilised with dimethyl sulfoxide (DMSO).
In April 2007, therapy with α-TOS was commenced using a modified formulation mixed in a lipodermal cream (see below). […] In addition, a palpable lesion was visible growing out between the ribs and the right anterior chest wall. The patient was in very poor condition with a low ECOG- no CT scan could be performed at the time of commencing the α-TOS treatment because the patient was too moribund.
α-TOS formulation: 500 gms of Lipoderm cream plus 60 gms α-TOS compounded by the hospital pharmacy. About 30 gms of compounded mix was administered every few days, and the upper body was wrapped in plastic film (“saran wrap”) to improve absorption.

[3] = biological target: T2, α-tocopherol transfer protein (α-TTP) (Rattus norvegicus, UniProt P41034); conditions: α-tocopherol 100%; Hosomi et al, 1997; cited from earlier work
T2 sequence (P41034 1-278): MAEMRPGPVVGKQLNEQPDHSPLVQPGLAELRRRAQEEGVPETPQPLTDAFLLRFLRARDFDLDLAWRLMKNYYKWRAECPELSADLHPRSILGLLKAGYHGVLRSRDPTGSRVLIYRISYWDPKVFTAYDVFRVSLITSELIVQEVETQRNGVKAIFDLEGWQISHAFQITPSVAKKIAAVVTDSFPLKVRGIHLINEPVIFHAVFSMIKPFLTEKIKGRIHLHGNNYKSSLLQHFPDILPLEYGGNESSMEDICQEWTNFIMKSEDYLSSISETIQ

**Q.** For Cc1c(C)c2c(c(C)c1OC(=O)C=CC(=O)O)CCC(C)(CCCC(C)CCCC(C)CCCC(C)C)O2 (stereo not drawn) [Compound 3, α-tocopheryl maleate], which “pro-apoptotic activity” value [1] is on record?
**A.** The value was “Even greater pro-apoptotic activity”.

**Q.** What about the IC50 [1] of the same molecule?
**A.** Its IC50 is 22 µM.

**Q.** Which “complex II-mediated MTT reduction” value [2] does the source give for O=C(O)CC[N+](=O)[O-] [Compound 3NPA, 3-nitropropionic acid] here?
**A.** Its value is “potent inhibitors of the complex II-mediated MTT reduction”.

**Q.** Which “pro-apoptotic activity” value [1] does the source give for Cc1c(C)c2c(c(C)c1OC(=O)CCCC(=O)O)CCC(C)(CCCC(C)CCCC(C)CCCC(C)C)O2 (stereo not shown) [Compound 5] here?
**A.** The value was “decreased activity”.

**Q.** For Cc1c(C)c2c(c(C)c1OC(=O)CC(C)CC(=O)O)CCC(C)(CCCC(C)CCCC(C)CCCC(C)C)O2 (stereo not shown) [Compound 6], which “pro-apoptotic activity” value [1] is on record?
**A.** The value was “decreased activity”.

**Q.** With Cc1c(C)c2c(c(C)c1OC(=O)CC(C)(C)CC(=O)O)CCC(C)(CCCC(C)CCCC(C)CCCC(C)C)O2 (stereo not shown) [Compound 7] as the molecule, how does the “pro-apoptotic activity” value [1] read?
**A.** The value was “decreased activity”.

**Q.** For COC(=O)CCC(=O)Oc1c(C)c(C)c2c(c1C)CCC(C)(CCCC(C)CCCC(C)CCCC(C)C)O2 (stereo not shown) [Compound 9], which “pro-apoptotic activity” value [1] is on record?
**A.** The value was “without pro-apoptotic activity”.

**Q.** With Cc1c(C)c2c(c(C)c1NC(=O)CCC(=O)O)CCC(C)(CCCC(C)CCCC(C)CCCC(C)C)O2 (stereo not shown) [Compound 12] as the molecule, how does the IC50 (Jurkat, U937, Meso-2) read?
**A.** Its IC50 is 13 µM.

**Q.** And the “pro-apoptotic activity” value (Jurkat, U937, Meso-2)?
**A.** Its value is “further enhancement of pro-apoptotic activity”.

**Q.** With Cc1c(C)c2c(c(C)c1NC(=O)C=CC(=O)O)CCC(C)(CCCC(C)CCCC(C)CCCC(C)C)O2 (stereo not shown) [Compound 13] as the molecule, how does the IC50 (Jurkat, U937, Meso-2) read?
**A.** Its IC50 is 2 µM.

**Q.** And the “pro-apoptotic activity” value (Jurkat, U937, Meso-2)?
**A.** The value was “further enhancement of pro-apoptotic activity”.

**Q.** For COC(=O)CCC(=O)Nc1c(C)c(C)c2c(c1C)CCC(C)(CCCC(C)CCCC(C)CCCC(C)C)O2 (stereo not shown) [Compound 14], which IC50 (Jurkat, U937, Meso-2) is on record?
**A.** The IC50 was > 100 µM.

**Q.** With Cc1c(C)c2c(c(C)c1OC(=O)C(N)CCCCN)CCC(C)(CCCC(C)CCCC(C)CCCC(C)C)O2 (stereo not shown) [Compound 16] as the molecule, how does the IC50 (MCF7) read?
**A.** Its IC50 is 12 µM.

**Q.** Which “EC50 [μg/ml]” value (MCF7; Shiau et al, 2006, footnote g) does the source give for Cc1c(C)c2c(c(C)c1CC(=O)O)CCC(C)(CCCC(C)CCCC(C)CCCC(C)C)O2 (stereo not shown) [Compound 22] here?
**A.** Its value is 15-20^g μg/ml.

**Q.** Which results are given for Cc1cc(OC(=O)CCC(=O)O)cc2c1OC(C)(CCCC(C)CCCC(C)CCCC(C)C)CC2 (stereo not shown) [Compound 35]?
**A.** pro-apoptotic activity [1]: least effective; IC50 [1]: 66 µM

**Q.** For Cc1cc(OC(=O)C=CC(=O)O)cc2c1OC(C)(CCCC(C)CCCC(C)CCCC(C)C)CC2 (stereo not shown) [Compound 36], which IC50 (Jurkat, U937, Meso-2) is on record?
**A.** The IC50 was 49 µM.

**Q.** With Cc1cc(NC(=O)CCC(=O)O)cc2c1OC(C)(CCCC(C)CCCC(C)CCCC(C)C)CC2 (stereo not shown) [Compound 37] as the molecule, how does the IC50 (Jurkat, U937, Meso-2) read?
**A.** Its IC50 is 20 µM.

**Q.** What about the “pro-apoptotic activity” value (Jurkat, U937, Meso-2) of the same molecule?
**A.** Its value is “further enhancement of pro-apoptotic activity”.

**Q.** For Cc1cc(NC(=O)C=CC(=O)O)cc2c1OC(C)(CCCC(C)CCCC(C)CCCC(C)C)CC2 (stereo not shown) [Compound 38], which IC50 (Jurkat, U937, Meso-2) is on record?
**A.** The IC50 was 9 µM.

**Q.** And the “pro-apoptotic activity” value (Jurkat, U937, Meso-2)?
**A.** Its value is “further enhancement of pro-apoptotic activity”.

**Q.** Which IC50 (MCF7) does the source give for Cc1c(C)c2c(c(C)c1OC(=O)C(N)CCCCN)CCC(C)(CO)O2 (stereo not shown) [Compound 47] here?
**A.** Its IC50 is 194 µM.

**Q.** Which IC50 (MCF7) does the source give for CCCCCOCC1(C)CCc2c(C)c(OC(=O)C(N)CCCCN)c(C)c(C)c2O1 (stereo not shown) [Compound 48] here?
**A.** The IC50 was 22 µM.

**Q.** Which IC50 (MCF7) does the source give for CCCCC(=O)OCC1(C)CCc2c(C)c(OC(=O)C(N)CCCCN)c(C)c(C)c2O1 (stereo not shown) [Compound 49] here?
**A.** Its IC50 is 15 µM.

**Q.** With CC(C)=CCC/C(C)=C/CC/C(C)=C/CC[C@]1(C)CCc2cc(O)cc(C)c2O1 [Compound 59, δ-tocotrienol] as the molecule, how does the IC50 (B16(F10)) read?
**A.** The IC50 was 10 µM.

**Q.** And the “potency in the murine B16-F10 melanoma cell model” value (B16(F10))?
**A.** Its value is “most potent agent”.

**Q.** For CC(C)=CCC/C(C)=C/CC/C(C)=C/CCC1(C)CCc2cc(O)ccc2O1 (stereo not shown) [Compound 60, desmethyl tocotrienol], which IC50 (B16(F10)) is on record?
**A.** The IC50 was 0.9 µM.

**Q.** For Nc1ccn([C@@H]2O[C@H](CO)[C@@H](O)C2(F)F)c(=O)n1 [Gemcitabine, reference compound], which “toxicity of other therapies (medical history)” value (“toxicity of other therapies” for short) (mesothelioma) is on record?
**A.** Its value is “unacceptable levels of toxicity”.

**Q.** Which “toxicity of other therapies” value (mesothelioma) does the source give for CCC1=C[C@@H]2CN(C1)Cc1c([nH]c3ccccc13)[C@@](C(=O)OC)(c1cc3c(cc1OC)N(C)[C@H]1[C@@](O)(C(=O)OC)[C@H](OC(C)=O)[C@]4(CC)C=CCN5CC[C@]31[C@@H]54)C2 [Vinorelbine, reference compound] here?
**A.** Its value is “severe exacerbation of peripheral neuropathy”.

**Q.** For Oc1ccc(C2=Cc3ccc(O)cc3OC2)cc1 [phenoxodiol, reference compound], which “toxicity of other therapies” value (mesothelioma) is on record?
**A.** Its value is “ongoing severe neuropathy”.

**Q.** For Cc1c(C)c2c(c(C)c1O)CC[C@@](C)(CCC[C@H](C)CCC[C@H](C)CCCC(C)C)O2 [α-tocopherol], which “relative affinities for α-TTP” value [3] is on record?
**A.** The value was 100%.

**Q.** With Cc1cc(O)c(C)c2c1O[C@](C)(CCC[C@H](C)CCC[C@H](C)CCCC(C)C)CC2 [β-tocopherol] as the molecule, how does the “relative affinities for α-TTP” value [3] read?
**A.** The value was 38%.

**Q.** With Cc1c(O)cc2c(c1C)O[C@](C)(CCC[C@H](C)CCC[C@H](C)CCCC(C)C)CC2 [γ-tocopherol] as the molecule, how does the “relative affinities for α-TTP” value [3] read?
**A.** The value was 9%.

**Q.** Which “relative affinities for α-TTP” value [3] does the source give for Cc1cc(O)cc2c1O[C@](C)(CCC[C@H](C)CCC[C@H](C)CCCC(C)C)CC2 [δ-tocopherol] here?
**A.** The value was 2%.
